{
  "source": "paper PMC7503308",
  "about": "“A Novel Urease Inhibitor of Ruminal Microbiota Screened through Molecular Docking” (International Journal of Molecular Sciences, 2020)",
  "test_system": "ruminal microbiota",
  "test": "Ruminal microbial fermentation in vitro (six generations): urea and NH3-N",
  "assay_type": "cell-based, rumen fluid of Chinese Holstein dairy cows",
  "conditions": "100 μM compound, 24 h, p < 0.01",
  "method": "Seven solutions were prepared for the anaerobic media as solution A (3 g/L K2HPO4), solution B (0.6 g/L CaCl2, 3 g/L K2HPO4, 6 g/L NaCl, 0.6 g/L MgSO4·7H2O), solution C (6 g/L K2HPO4), solution D (1.6 g/L CaCl2·2H2O, 6 g/L K2HPO4, 12 g/L NaCl, 2.5 g/L MgSO4·7H2O), trace element solution (300 mg/L H3BO3, 100 mg/L ZnSO4·7H2O, 30 mg/L MnCl2·4H2O, 20 mg/L CoCl2·6H2O, 30 mg/L Na2MoO4·2H2O, 10 mg/L Na2SeO3, 20 mg/L NiCl2, 10 mg/L CuCl2·2H2O, 150 mg/L FeCl2·4H2O), volatile fatty acid (VFA) mixed solution (17 mL acetic acid, 6 mL propionic acid, 4 mL butyric acid, 1 mL n-valeric acid, 1 mL isovaleric acid, and 1 mL isobutyric acid), and hemin solution, prepared by diluting 50 mg of Haemon in NaOH (1 N solution) and made up to 100 mL with distilled water. Each liter of anaerobic media contained 30 mL of autoclaved rumen fluid supernatant, 0.5 g of glucose, 0.5 g of soluble starch, 0.5 g of cellobiose, 0.5 g of maltose, 0.5 g of […], 0.5 g of tripticase, 0.5 g of yeast extract, 8 g of NaHCO3, 0.1 mL of trace elements solution, 15 mL solution A, 15 mL solution B, 0.5 g of cysteine hydrochloride, 10 mL of hemin solution, 3.1 mL of VFA mixed solution, and 1 mg resazurin. The anaerobic urea solution was prepared using an anaerobic glove box, by dissolving 2.5 g of urea in a 50 mL anaerobic diluent. This diluent consisted of 3.8 mL of salt solution C, 3.8 mL of salt solution D, 5 mL of 8% sodium Na2CO3, 1 mL of 0.1% resazurin, 0.5 g of cysteine hydrochloride dissolved in distilled water and made up to 1000 mL and distributed into 50 mL anaerobic bottles. All the anaerobic bottles were sterilized by autoclave. Prior to the inoculation, fresh frozen rumen fluid samples, pretreated as described previously, were removed from the freezer, thawed, homogenized, and used immediately. […] Chromatographic gradients were referenced to the paper.",
  "note": "Entries after “also recorded” stand apart in the source; their conditions may differ.",
  "data": [
    {"compound": "COc1ccc(-c2ccc(CCC(=O)O)n2NC(N)=O)cc1", "note": "[6238-0047, 3-[1-[(aminocarbonyl)amino]-5-(4-methoxyphenyl)-1H-pyrrol-2-yl] propanoic acid]", "values": [
      {"measurement": "Amount of urea degradation vs control group", "setting": "16.65 mM urea", "value": "significantly lowered the amount of urea degradation"},
      {"measurement": "NH3-N concentration / production vs control group", "value": "significantly lower than the control group; also recorded: consistently lower than the control group"}
    ]}
  ]
}
